Data on ten molecules can be found in patent US10265411B2, “N-optionally substituted aryl-2-oligomer-3-alkoxypropionamides” (Nektar Therapeutics, priority 2010, dated 2019).

SMILES strings stand for the structures. pIC50: −log10 of the molar value. Where two headings read alike, the source gives them in different places. Some results are limits rather than exact numbers.

In general, pIC50 refers to the negative decadic logarithm of the IC50, by convention in mol/L.

A short description of data set [1]: Solubility of test articles in dosing vehicle 0.5% CMC. The note with it: 0.5% CMC (carboxymethylcellulose). It is filed as physicochemical.
Data set [2] has as its target T1, cloned hNav1.8 channels expressed in CHO cells (Homo sapiens, UniProt Q9Y5Y9).
T1 construct: expressed in transfected cells
The data set is described as follows: Na+ channel blocking examination, automated whole-cell patch clamp (IonWorks Quattro). It is filed as cell-based. The settings on record: for pIC50: hNav1.8 in CHO cells; for block of hNav1.8 channels in the inactivated state, potency relative to control (lacosamide): in words. As to the method:
Using an automated whole-cell patch-clamp approach, the in vitro effects of oligomer-containing compounds of the invention (synthesis described in Example 1) on cloned hNav1.8 channels expressed in CHO cells relative to control (lacosamide) were evaluated.
The procedures used in this experiment followed those set forth in Sheets et al. (2008) J Pharmacol Exp Ther 326(1):89-99. Briefly, automated patch clamp electrophysiological procedures were carried out in the IonWorks Quattro™ system (Molecular Devices Corporation, Union City Calif.). In preparation for a current recording session, intracellular solution (140 mM KCl, 5 mM MgCl2, 0.5 mM EGTA, 10 mM HEPES, 0.1 mg/mL amphotericin B) was loaded into the intracellular compartment of the Population Patch Clamp™ (PPC) planar electrode. CHO cells stably expressing the human Nav1.8 sodium channel subtype were suspended in HEPES-buffered physiological saline solution (137 mM NaCl, 4 mM KCl, 1.8 mM CaCl2, 1 mM MgCl2, 10 mM HEPES, 10 mM Glucose, pH adjusted to 7.4 with NaOH) and pipetted into the wells of the PPC planar electrode. After establishment of a whole-cell configuration (the perforated patch), membrane currents were recorded using patch clamp amplifier in the IonWorks Quattro™ system. Test article concentrations, loaded in a 384-well compound plate, were applied to naïve cells (one concentration per cell) via steel needles of a 48-channel pipettor. Each application consisted of addition of 6 μL of 2× concentrated test article solution to the total 12 μL final volume of the extracellular well of the PPC planar electrode. The PPC well contents were then mixed (three times) following addition of test article. All experiments were performed at ambient temperature.
Block of hNav1.8 sodium channel was measured using a stimulus voltage pattern shown in FIG. 1, and voltage potentials are indicated in Table 1. The pulse pattern was repeated twice (once before addition of test article and the other five minutes after test article addition). Peak current amplitudes were measured at three test pulses: TP1 (tonic block), TP11 (frequency-dependent block at 10 Hz), and TP12 (inactivated state block).
Data acquisition and analyses were performed using the IonWorks Quattro™ system operation software (version 2.0.2; Molecular Devices Corporation, Union City, Calif.). Inhibition potencies were estimated from concentration-response curves fitted using the Hill function: % Block=% VC+{(100−% VC)−(100−% VC)/[1+([Test]/IC50)^N]}, where [Test] is the concentration of test article, IC50 is the concentration of the test article producing half-maximal inhibition, N is the Hill coefficient, % VC is the percentage of the current run-down (the mean current inhibition at the vehicle control) and % Block is the percentage of ion channel current inhibited at each concentration of the test article.
In general terms: Patch clamp records ionic current or voltage across a cell membrane.

Data set [3] concerns formalin-induced paw licking in the mouse. As to the kind of experiment: Pain model: formalin-induced paw licking in the mouse. It is filed as in vivo. The settings on record: for formalin-induced paw licking compared to saline, Phase 2: dose 200, PO, Phase 2 (15-30 minutes); for mice sedated / mice with splayed posture: 200 mg/kg orally. As for the experimental part: In the formalin-induced paw licking model, a test compound is administered via oral gavage (“PO”) followed in thirty minutes by the subcutaneous injection of formalin to a hind paw of a mouse. Subcutaneous injection of formalin first causes a pain-inducing mechanical injury (involving bradykinin and substance P) in the first five minutes (“Phase 1”) followed by a pain-inducing inflammatory response (involving bradykinin, histamine, serotonin and prostaglandins) occurring between 15-30 minutes (“Phase 2”) following the formalin injection. Both pain-inducing stimuli causes a characteristic “paw licking” response. The amount of time spent licking the formalin-injected paw is measured during Phase 1 and Phase 2. If the test article has relatively good pain reducing properties, a reduction in the time spent licking the formalin-injected paw is observed compared to the saline control group. […] By measuring a series of test articles, it is possible to understand each test article's pain reducing activity relative to each other.

The mark [4] stands for this setting: test pulse TP1 (tonic block), 5 min after test article addition, read-out: IC50, type of block: Tonic.
The mark [5] stands for this setting: test pulse TP11 (frequency-dependent block at 10 Hz), read-out: IC50, type of block: 10 Hz.
[6] abbreviates: test pulse TP12 (inactivated state block), read-out: IC50, type of block: Inactivated state.
Setting [7] is: 30 min before formalin, in words.

T1 sequence (Q9Y5Y9 whole entry): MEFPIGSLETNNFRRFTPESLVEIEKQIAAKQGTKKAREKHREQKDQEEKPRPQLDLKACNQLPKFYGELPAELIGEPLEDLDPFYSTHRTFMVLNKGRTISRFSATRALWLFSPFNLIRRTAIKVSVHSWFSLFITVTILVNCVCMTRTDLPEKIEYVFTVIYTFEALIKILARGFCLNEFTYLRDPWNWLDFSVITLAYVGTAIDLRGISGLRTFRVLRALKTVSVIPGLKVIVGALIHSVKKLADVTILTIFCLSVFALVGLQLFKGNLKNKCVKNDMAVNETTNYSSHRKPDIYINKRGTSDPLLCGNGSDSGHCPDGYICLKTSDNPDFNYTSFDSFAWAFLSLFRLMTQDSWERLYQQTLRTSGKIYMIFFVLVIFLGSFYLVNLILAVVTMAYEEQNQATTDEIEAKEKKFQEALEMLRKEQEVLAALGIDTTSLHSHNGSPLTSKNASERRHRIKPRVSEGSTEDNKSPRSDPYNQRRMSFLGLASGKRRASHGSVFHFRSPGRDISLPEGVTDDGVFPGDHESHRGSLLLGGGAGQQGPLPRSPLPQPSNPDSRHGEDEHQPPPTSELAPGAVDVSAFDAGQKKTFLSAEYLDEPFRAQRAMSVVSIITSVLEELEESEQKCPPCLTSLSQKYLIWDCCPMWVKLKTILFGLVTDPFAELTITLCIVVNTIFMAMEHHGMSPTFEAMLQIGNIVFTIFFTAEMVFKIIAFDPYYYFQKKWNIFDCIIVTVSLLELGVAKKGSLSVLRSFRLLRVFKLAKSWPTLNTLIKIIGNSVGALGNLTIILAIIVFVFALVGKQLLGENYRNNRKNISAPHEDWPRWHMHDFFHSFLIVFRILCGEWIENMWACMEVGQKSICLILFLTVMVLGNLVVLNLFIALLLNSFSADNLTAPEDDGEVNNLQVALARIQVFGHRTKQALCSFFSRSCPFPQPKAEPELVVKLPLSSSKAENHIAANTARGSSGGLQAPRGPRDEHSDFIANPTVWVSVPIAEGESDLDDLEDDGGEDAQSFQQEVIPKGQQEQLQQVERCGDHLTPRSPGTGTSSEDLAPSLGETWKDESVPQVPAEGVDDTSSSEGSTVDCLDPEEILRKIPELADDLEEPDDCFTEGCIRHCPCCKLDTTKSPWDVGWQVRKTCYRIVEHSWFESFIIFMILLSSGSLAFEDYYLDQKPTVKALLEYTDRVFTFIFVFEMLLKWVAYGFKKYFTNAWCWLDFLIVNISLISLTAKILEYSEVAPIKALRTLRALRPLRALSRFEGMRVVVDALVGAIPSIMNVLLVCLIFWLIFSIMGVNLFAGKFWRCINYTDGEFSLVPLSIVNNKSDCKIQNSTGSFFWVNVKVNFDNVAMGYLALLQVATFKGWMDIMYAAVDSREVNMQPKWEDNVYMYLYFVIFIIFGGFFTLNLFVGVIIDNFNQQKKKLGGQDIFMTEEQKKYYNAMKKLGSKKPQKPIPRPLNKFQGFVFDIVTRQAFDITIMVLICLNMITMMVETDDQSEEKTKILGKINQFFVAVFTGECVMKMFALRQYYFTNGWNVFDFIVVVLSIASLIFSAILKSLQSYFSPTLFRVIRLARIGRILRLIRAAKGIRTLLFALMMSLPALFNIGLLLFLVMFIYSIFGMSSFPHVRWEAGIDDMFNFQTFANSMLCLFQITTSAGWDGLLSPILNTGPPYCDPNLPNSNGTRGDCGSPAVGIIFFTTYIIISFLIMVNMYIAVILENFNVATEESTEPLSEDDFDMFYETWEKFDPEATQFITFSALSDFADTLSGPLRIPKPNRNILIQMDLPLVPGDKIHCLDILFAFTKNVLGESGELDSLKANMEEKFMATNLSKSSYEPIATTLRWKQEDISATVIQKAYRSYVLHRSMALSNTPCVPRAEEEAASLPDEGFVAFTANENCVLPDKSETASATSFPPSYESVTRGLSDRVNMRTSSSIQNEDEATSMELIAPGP

Regarding `COCCOC(=O)N[C@H](COC)C(=O)NCc1ccccc1` [(2R) N-benzyl-2-carboxy mPEG1 amino-3-methoxy propionamide], in data set [1], the solubility in vehicle result is on record as “not readily soluble”. Further, the values for the pIC50 in data set [2] (setting [4]), in data set [2] (setting [5]) and in data set [2] (setting [6]) were below 3.52, below 3.52 and 3.57, respectively. Further, in data set [2], the “block of hNav1.8 channels in the inactivated state, potency relative to control (lacosamide)” value (“block … potency relative to control (lacosamide)” below) is listed as “potency comparable to control”.

With `COCCOCCOC(=O)N[C@H](COC)C(=O)NCc1ccccc1` [(2R) N-benzyl-2-carboxy mPEG2 amino-3-methoxy propionamide], the “formalin-induced paw licking compared to saline, Phase 2” value in data set [3] (setting [7]) is recorded as “showed a reduction”. Further, the pIC50 in data set [2] (setting [4]) was below 3.52; in data set [2] (setting [5]), below 3.52; in data set [2] (setting [6]), 3.78. Further, the “block … potency relative to control (lacosamide)” value in data set [2] was “potency comparable to control”.

For `COCCOCCOCCOC(=O)N[C@H](COC)C(=O)NCc1ccccc1` [(2R) N-benzyl-2-carboxy mPEG3 amino-3-methoxy propionamide], the “formalin-induced paw licking compared to saline, Phase 2” value in data set [3] (setting [7]) was “showed a reduction”. Moreover, the pIC50 in data set [2] (setting [4]) is below 3.52; in data set [2] (setting [5]), below 3.52; in data set [2] (setting [6]), 3.62. The “block … potency relative to control (lacosamide)” value in data set [2] is reported as “potency comparable to control”.

For the molecule `COCCOCCOCCOCCOC(=O)N[C@H](COC)C(=O)NCc1ccccc1` [(2R) N-benzyl-2-carboxy mPEG4 amino-3-methoxy propionamide], the “formalin-induced paw licking compared to saline, Phase 2” value in data set [3] (setting [7]) was “showed a reduction”. The pIC50 in data set [2] (setting [4]), in data set [2] (setting [5]) and in data set [2] (setting [6]) was below 3.52 in each case.

Turning to `COCCOCCOCCOCCOCCOC(=O)N[C@H](COC)C(=O)NCc1ccccc1` [(2R) N-benzyl-2-carboxy mPEG5 amino-3-methoxy propionamide], the “formalin-induced paw licking compared to saline, Phase 2” value in data set [3] (setting [7]) is given as “showed a reduction”. Moreover, the pIC50 in data set [2] (setting [4]), in data set [2] (setting [5]) and in data set [2] (setting [6]) was below 3.52 in each case.

As for `COCCOCCOCCOCCOCCOCCOC(=O)N[C@H](COC)C(=O)NCc1ccccc1` [(2R) N-benzyl-2-carboxy mPEG6 amino-3-methoxy propionamide], the pIC50 in data set [2] (setting [4]), in data set [2] (setting [5]) and in data set [2] (setting [6]) was below 3.52 each time.

Take `COCCOCCOCCOCCOCCOCCOCCOC(=O)N[C@H](COC)C(=O)NCc1ccccc1` [(2R) N-benzyl-2-carboxy mPEG7 amino-3-methoxy propionamide]: the negative logarithm of the IC50 (pIC50) in data set [2] (setting [4]), in data set [2] (setting [5]) and in data set [2] (setting [6]) was below 3.52 in each case.

With `COCCOCCOCCOCCOCCOCCOCCOCCOC(=O)N[C@H](COC)C(=O)NCc1ccccc1` [(2R) N-benzyl-2-carboxy mPEG8 amino-3-methoxy propionamide], the negative logarithm of the IC50 (pIC50) in data set [2] (setting [4]), in data set [2] (setting [5]) and in data set [2] (setting [6]) was below 3.52 throughout.

Take `COCCOCCOCCOCCOCCOCCOCCOCCOCCOC(=O)N[C@H](COC)C(=O)NCc1ccccc1` [(2R) N-benzyl-2-carboxy mPEG9 amino-3-methoxy propionamide]: the pIC50 in data set [2] (setting [4]), in data set [2] (setting [5]) and in data set [2] (setting [6]) was below 3.52 throughout.

`COC[C@@H](NC(C)=O)C(=O)NCc1ccccc1` [(R)—N-benzyl-2-acetamido-3-methoxy propionamide]: in data set [1], the solubility in vehicle result was “not readily soluble”. Further, in data set [3] (200 mg/kg PO, 30 min before formalin, Phase 1 (first five minutes), in words), the “formalin-induced paw licking time, Phase 1” value was “greatest reduction”. Moreover, the mice sedated in data set [3] (Phase 1) is given as 5/7; in data set [3] (Phase 2) it was 6/7. Moreover, the results for the “mice with splayed posture” value in data set [3] (Phase 1) and in data set [3] (Phase 2) were 5/7 and 7/7, respectively. For the same molecule, the “formalin-induced paw licking compared to saline, Phase 2” value in data set [3] (setting [7]) is on record as “greatest reduction”. Moreover, the pIC50 in data set [2] (IC50, type of block: 10 Hz, test pulse TP11 (frequency-dependent block at 10 Hz)) was below 3.52; in data set [2] (IC50, type of block: Inactivated state, test pulse TP12 (inactivated state block)), 3.56; in data set [2] (IC50, type of block: Tonic, test pulse TP1 (tonic block), 5 min after test article addition), below 3.52.
